The values below come from patent US20260327204A1, “DEGRADERS OF CYCLIN-DEPENDENT KINASE 12/13, COMPOSITIONS, AND USES THEREOF” (ZHEJIANG UNIVERSITY, priority 2023, published 2026).

One assay deals with CDK12 (Homo sapiens, UniProt Q9NYV4). Nature of the assay: Western blot degradation of CDK12 (Example 2). Type of assay: cell-based. Details: degradation of CDK12/13 protein in leukemia cells KASUMI-1, MV4-11, and Jurkat; endogenous in cells. The settings on record: DC50 classes, cell line not given; for DC50: read-out: CDK12 degradation Activity. The protocol:
(§1) Western blot was used to determine the degradation of CDK12/13 protein in leukemia cells KASUMI-1, MV4-11, and Jurkat. The two compounds with the best degradation effects were further validated for their ability to degrade CDK12/13 protein in breast cancer cells MDA-MB-231 using a concentration gradient.
(§2) • Cell lines: KASUMI-1, MV4-11, Jurkat, or MDA-MB-231 • Culture medium: DMEM/RIPM-1640+10% Hyclone serum • Compound dissolution method: Compounds were dissolved in DMSO to prepare a 50 mM stock solution, and then diluted to the corresponding concentrations.
(§3) (1) In vitro cell culture: The selected cells were cultured in a 37 °C constant temperature incubator with 5% CO2. Once the cell density reached 70-90%, they were passaged for subsequent experiments.
(§4) (2) Cell seeding: Cells were digested, and the cell suspension was transferred to a 1.5 mL Eppendorf tube. After centrifugation at 1,000 rpm for 5 min, the cells were resuspended in 2 mL of culture medium and counted. The cell suspension was seeded in a 24-well plate at a density of 200,000 cells per well and allowed to adhere for 8-12 h.
(§5) (3) Compound treatment: The 50 mM compound stock solution was diluted with cell culture medium to a final concentration of 0.01 μM-3 μM. Cells were incubated in a 37 °C incubator with 5% CO2 for 3 h-48 h. The DMSO group served as the negative control.
(§6) At the end of the treatment time, the cells were collected and washed once with PBS. An appropriate volume of 4% SDS was added to lyse the cells, and the mixture was sonicated until no longer viscous. After centrifugation at 12,000 rpm at room temperature for 30 min, the supernatant was transferred to a new EP tube for protein quantification.
(§7) The exposure results were quantitatively analyzed using Image J software. First, the grayscale values of the bands were calculated using Image J. Then, the grayscale value of the target protein was divided by the grayscale value of the internal reference protein for normalization. The calculation formula is: […]
(§8) Where A is the grayscale value and D is the degradation rate.
(§9) In the figures, CDK12 and CDK13 are the target proteins under study, and β-Actin and GAPDH are the internal reference proteins. Internal reference proteins are used to indicate the total protein amount in each experimental group for quantitative analysis.

In the next assay the target is CDK13 (Homo sapiens, UniProt Q14004). Nature of the assay: Western blot degradation of CDK13 (Example 2). The settings on record: DC50 classes, cell line not given; for DC50: read-out: CDK13 degradation Activity. Also on record: degradation of CDK12/13 protein in leukemia cells KASUMI-1, MV4-11, and Jurkat; endogenous in cells. Type of assay: cell-based. The protocol: as §1, §2, §3, §4, §5, §6, §7, §8, §9
Sequence of CDK13 (Q14004 whole entry): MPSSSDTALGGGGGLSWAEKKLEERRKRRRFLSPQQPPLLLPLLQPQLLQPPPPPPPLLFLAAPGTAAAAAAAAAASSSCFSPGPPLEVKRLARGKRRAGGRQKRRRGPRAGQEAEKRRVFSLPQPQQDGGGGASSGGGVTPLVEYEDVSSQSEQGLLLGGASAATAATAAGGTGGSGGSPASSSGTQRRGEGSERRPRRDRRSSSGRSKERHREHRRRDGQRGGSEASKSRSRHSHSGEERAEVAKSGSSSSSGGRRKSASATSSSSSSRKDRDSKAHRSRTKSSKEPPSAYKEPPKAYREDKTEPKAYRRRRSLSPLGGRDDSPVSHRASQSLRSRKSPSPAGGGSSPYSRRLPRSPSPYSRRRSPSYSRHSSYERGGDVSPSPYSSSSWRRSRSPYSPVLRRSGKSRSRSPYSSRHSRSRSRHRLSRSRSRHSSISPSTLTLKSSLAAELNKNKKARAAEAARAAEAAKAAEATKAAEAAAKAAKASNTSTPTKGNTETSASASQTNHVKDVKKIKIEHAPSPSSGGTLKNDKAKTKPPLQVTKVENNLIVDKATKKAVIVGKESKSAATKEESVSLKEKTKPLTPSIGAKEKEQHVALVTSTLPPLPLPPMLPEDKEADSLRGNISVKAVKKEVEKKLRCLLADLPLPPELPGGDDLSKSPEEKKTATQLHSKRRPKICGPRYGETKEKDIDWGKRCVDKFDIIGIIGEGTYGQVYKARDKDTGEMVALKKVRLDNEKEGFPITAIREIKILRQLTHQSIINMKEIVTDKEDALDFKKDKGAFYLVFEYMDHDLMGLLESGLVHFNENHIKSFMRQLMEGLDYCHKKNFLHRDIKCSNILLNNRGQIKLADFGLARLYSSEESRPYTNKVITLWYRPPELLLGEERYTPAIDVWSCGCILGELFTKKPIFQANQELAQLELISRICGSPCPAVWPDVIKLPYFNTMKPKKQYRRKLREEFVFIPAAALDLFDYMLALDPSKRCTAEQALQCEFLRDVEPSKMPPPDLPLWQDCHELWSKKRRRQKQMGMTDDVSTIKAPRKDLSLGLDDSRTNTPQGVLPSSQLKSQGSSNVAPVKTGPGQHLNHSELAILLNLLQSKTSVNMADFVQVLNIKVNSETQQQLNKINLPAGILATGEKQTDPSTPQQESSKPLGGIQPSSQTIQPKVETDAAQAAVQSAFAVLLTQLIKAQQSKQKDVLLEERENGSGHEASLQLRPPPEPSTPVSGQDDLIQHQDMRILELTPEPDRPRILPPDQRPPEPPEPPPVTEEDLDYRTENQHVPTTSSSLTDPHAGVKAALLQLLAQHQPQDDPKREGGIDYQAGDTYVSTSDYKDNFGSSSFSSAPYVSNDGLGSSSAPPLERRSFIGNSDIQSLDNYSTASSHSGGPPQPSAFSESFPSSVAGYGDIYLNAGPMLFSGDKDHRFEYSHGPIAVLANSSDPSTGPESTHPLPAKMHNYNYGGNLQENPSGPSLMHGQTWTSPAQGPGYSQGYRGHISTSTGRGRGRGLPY
Sequence of CDK13 (O75909 whole entry partner): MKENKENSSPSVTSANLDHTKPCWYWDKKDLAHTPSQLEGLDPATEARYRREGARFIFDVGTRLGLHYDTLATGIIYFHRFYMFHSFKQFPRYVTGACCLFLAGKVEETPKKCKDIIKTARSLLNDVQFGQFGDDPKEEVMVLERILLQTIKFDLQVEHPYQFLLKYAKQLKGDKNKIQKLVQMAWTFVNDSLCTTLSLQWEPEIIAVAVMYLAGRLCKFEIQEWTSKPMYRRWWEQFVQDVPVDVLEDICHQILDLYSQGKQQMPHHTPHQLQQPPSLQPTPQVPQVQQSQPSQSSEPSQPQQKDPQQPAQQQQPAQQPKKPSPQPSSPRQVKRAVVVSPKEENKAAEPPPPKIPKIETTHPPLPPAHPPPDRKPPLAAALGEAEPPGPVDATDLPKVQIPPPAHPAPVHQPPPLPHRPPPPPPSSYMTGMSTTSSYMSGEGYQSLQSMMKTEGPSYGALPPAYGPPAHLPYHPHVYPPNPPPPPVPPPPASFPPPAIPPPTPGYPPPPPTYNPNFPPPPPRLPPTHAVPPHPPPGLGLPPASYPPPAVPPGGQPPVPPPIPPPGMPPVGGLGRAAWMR
For orientation: In western blotting, separated proteins are transferred to a membrane and probed.

Sequence of CDK12 (Q9NYV4 whole entry): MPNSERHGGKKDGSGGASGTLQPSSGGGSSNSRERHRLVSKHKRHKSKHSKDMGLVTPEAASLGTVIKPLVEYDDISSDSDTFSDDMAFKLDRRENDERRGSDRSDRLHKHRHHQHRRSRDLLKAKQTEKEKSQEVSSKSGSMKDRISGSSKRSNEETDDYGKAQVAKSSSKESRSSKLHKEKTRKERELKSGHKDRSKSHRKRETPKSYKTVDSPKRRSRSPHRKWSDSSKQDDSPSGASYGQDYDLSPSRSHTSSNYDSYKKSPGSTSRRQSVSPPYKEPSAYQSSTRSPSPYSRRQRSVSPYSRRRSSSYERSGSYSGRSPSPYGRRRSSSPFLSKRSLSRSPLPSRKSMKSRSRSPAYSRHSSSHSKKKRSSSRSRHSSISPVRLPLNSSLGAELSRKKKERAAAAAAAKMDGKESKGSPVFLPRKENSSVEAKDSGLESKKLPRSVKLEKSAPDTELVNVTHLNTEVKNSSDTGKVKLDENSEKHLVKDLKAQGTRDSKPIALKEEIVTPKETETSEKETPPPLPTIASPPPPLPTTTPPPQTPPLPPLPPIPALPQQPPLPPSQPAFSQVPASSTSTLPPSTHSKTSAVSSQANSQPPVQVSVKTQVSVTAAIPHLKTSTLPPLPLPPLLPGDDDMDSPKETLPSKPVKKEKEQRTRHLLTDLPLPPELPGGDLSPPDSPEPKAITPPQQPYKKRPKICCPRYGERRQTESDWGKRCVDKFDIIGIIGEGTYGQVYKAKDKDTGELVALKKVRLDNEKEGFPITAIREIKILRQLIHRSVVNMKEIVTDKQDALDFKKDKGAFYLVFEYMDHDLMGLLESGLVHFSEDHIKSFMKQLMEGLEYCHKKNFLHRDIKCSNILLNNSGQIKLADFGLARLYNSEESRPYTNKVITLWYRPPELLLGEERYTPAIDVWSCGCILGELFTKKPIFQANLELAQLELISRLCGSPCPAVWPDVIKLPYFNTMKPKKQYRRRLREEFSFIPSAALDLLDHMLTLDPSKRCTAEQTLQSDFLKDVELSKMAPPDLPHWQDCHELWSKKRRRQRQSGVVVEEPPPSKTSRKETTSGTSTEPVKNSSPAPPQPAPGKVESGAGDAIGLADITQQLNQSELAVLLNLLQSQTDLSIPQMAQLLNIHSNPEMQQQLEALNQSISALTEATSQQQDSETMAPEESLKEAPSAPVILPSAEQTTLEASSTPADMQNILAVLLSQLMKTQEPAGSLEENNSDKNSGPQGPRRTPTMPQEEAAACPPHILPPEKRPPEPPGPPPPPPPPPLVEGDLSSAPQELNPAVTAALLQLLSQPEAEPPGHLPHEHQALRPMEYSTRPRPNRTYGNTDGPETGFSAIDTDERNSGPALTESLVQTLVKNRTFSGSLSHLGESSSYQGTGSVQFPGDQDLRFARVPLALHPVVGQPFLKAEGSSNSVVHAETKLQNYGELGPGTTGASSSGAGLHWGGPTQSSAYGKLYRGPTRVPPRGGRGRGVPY
Sequence of CDK12 (O75909 whole entry partner): as the sequence (O75909 whole entry partner) above

Take `Cc1ncsc1-c1ccc([C@H](C)NC(=O)[C@@H]2C[C@@H](O)CN2C(=O)[C@@H](NC(=O)CN2CCN(c3ncc(-c4ccc(N(C(=O)NCc5ccccc5)[C@H]5CC[C@H](Nc6ccc(C#N)cn6)CC5)cc4)cn3)CC2)C(C)(C)C)cc1` [Formula 85]: the DC50 on CDK12 and on CDK13 was less than 100 nM throughout.
In the case of `N#Cc1ccc(N[C@H]2CC[C@H](N(C(=O)NCc3ccccc3)c3ccc(-c4ccc(=O)n(CCOCCOCCOCCOCCNc5cccc6c5C(=O)N(C5CCC(=O)NC5=O)C6=O)c4)cc3)CC2)nc1` (stereo partly drawn) [Formula 49], the DC50 at CDK12 lay in the range of 500 to 1000 nM; on CDK13, 1000 to 3000 nM.
As for `Cc1ncsc1-c1ccc([C@H](C)NC(=O)[C@@H]2C[C@@H](O)CN2C(=O)[C@@H](NC(=O)CN2CCN(c3ncc(-c4ccc(N(C(=O)NCc5ccccc5)[C@H]5CC[C@H](Nc6ccc(C#N)cn6)CC5)cc4)cn3)CC2)C(C)(C)C)cc1` [Formula 82], the DC50 on CDK12 and on CDK13 was less than 100 nM in each case.
On to `N#Cc1ccc(N[C@H]2CC[C@H](N(C(=O)NCc3ccccc3)c3ccc(-c4ccc(OCCOCCOCCOCCOCCOCCNc5cccc6c5C(=O)N(C5CCC(=O)NC5=O)C6=O)nc4)cc3)CC2)nc1` (stereo partly drawn) [Formula 36], for which the “CDK12 degradation Activity” value on CDK12 is “−”. Moreover, at CDK13, the “CDK13 degradation Activity” value is “−”.
With `Cc1ncsc1-c1ccc([C@H](C)NC(=O)[C@@H]2C[C@@H](O)CN2C(=O)[C@@H](NC(=O)COCCOc2ccc(-c3ccc(N(C(=O)NCc4ccccc4)[C@H]4CC[C@H](Nc5ccc(C#N)cn5)CC4)cc3)cn2)C(C)(C)C)cc1` [Formula 1], the DC50 on CDK12 and on CDK13 was 100 to 500 nM each time.
As for `Cc1ncsc1-c1ccc([C@H](C)NC(=O)[C@@H]2C[C@@H](O)CN2C(=O)[C@@H](NC(=O)CN2CCN(c3ccc(-c4ccc5c(c4)CCCN(Cc4ccccc4)C(=O)N5[C@H]4CC[C@H](Nc5ccc(C#N)cn5)CC4)cn3)CC2)C(C)(C)C)cc1` [Formula 70], the DC50 at CDK12 and on CDK13 was less than 100 nM each time.
Consider `Cc1ncsc1-c1ccc([C@H](C)NC(=O)[C@@H]2C[C@@H](O)CN2C(=O)[C@@H](NC(=O)COCCOCCOCCn2cc(-c3ccc(N(C(=O)NCc4ccccc4)[C@H]4CC[C@H](Nc5ccc(C#N)cn5)CC4)cc3)ccc2=O)C(C)(C)C)cc1` [Formula 58], for which the “CDK12 degradation Activity” value on CDK12 is listed as “−”. For the same compound, the “CDK13 degradation Activity” value on CDK13 was “−”.
On to `Cc1ncsc1-c1ccc([C@H](C)NC(=O)[C@@H]2C[C@@H](O)CN2C(=O)[C@@H](NC(=O)COCCOCCOCCOc2ccc(-c3ccc(N(C(=O)NCc4ccccc4)[C@H]4CC[C@H](Nc5ccc(C#N)cn5)CC4)cc3)cn2)C(C)(C)C)cc1` [Formula 3], for which the DC50 at CDK12 and on CDK13 was 3000 to 10000 nM throughout.
`Cc1ncsc1-c1ccc([C@H](C)NC(=O)[C@@H]2C[C@@H](O)CN2C(=O)[C@@H](NC(=O)COCCOCCN2CCN(c3ccc(N(C(=O)NCc4ccccc4)[C@H]4CC[C@H](Nc5ccc(C#N)cn5)CC4)cc3)CC2)C(C)(C)C)cc1` [Formula 8]: the DC50 on CDK12 and on CDK13 was 500 to 1000 nM in each case.
For `Cc1ncsc1-c1ccc([C@H](C)NC(=O)[C@@H]2C[C@@H](O)CN2C(=O)[C@@H](NC(=O)CC#CCCOc2ccc(-c3ccc(N(C(=O)NCc4ccccc4)[C@H]4CC[C@H](Nc5ccc(C#N)cn5)CC4)cc3)cn2)C(C)(C)C)cc1` [Formula 13], the DC50 on CDK12 and on CDK13 was 3000 to 10000 nM throughout.
In the case of `Cc1ncsc1-c1ccc([C@H](C)NC(=O)[C@@H]2C[C@@H](O)CN2C(=O)[C@@H](NC(=O)N2CC3(CCN(c4ccc(N(C(=O)NCc5ccccc5)[C@H]5CC[C@H](Nc6ncc(C#N)cn6)CC5)cc4)CC3)C2)C(C)(C)C)cc1` [Formula 54], the “CDK12 degradation Activity” value at CDK12 is “−”. Besides, the “CDK13 degradation Activity” value at CDK13 was “−”.
Turning to `Cc1ncsc1-c1ccc([C@H](C)NC(=O)[C@@H]2C[C@@H](O)CN2C(=O)[C@@H](NC(=O)COc2ccc(-c3ccc(N(C(=O)NCc4ccccc4)[C@H]4CC[C@H](Nc5ccc(C#N)cn5)CC4)cc3)cn2)C(C)(C)C)cc1` [Formula 6], the DC50 lay in the range of 1000 to 3000 nM on CDK12 and 500 to 1000 nM at CDK13.
`Cc1ncsc1-c1ccc([C@H](C)NC(=O)[C@@H]2C[C@@H](O)CN2C(=O)[C@@H](NC(=O)CN2CCN(c3ccc(-c4ccc(N(C(=O)NCc5ccccc5)[C@H]5CC[C@H](Nc6ccc(C#N)cn6)CC5)cc4)cn3)CC2)C(C)(C)C)cc1` (racemic) [Formula 73]: the DC50 at CDK12 and on CDK13 was less than 100 nM in each case.
Consider `Cc1ncsc1-c1ccc([C@H](C)NC(=O)[C@@H]2C[C@@H](O)CN2C(=O)[C@@H](NC(=O)CN2CCC(Oc3ccc(-c4ccc(N(C(=O)NCc5ccccc5)[C@H]5CC[C@H](Nc6ccc(C#N)cn6)CC5)cc4)cn3)CC2)C(C)(C)C)cc1` [Formula 11], for which the DC50 was 500 to 1000 nM on CDK12 and 100 to 500 nM at CDK13.
The matching figures for `Cc1ncsc1-c1ccc([C@H](C)NC(=O)[C@@H]2C[C@@H](O)CN2C(=O)[C@@H](NC(=O)N2CCN(c3ccc(N(C(=O)NCc4ccccc4)[C@H]4CC[C@H](Nc5ncc6ccccc6n5)CC4)cc3)CC2)C(C)(C)C)cc1` [Formula 53]: 3000 to 10000 nM and 1000 to 3000 nM.
In the same order, the values of `Cc1ncsc1-c1ccc([C@H](C)NC(=O)[C@@H]2C[C@@H](O)CN2C(=O)[C@@H](NC(=O)COCCOCCOCCOCCn2cc(-c3ccc(N(C(=O)NCc4ccccc4)[C@H]4CC[C@H](Nc5ccc(C#N)cn5)CC4)cc3)ccc2=O)C(C)(C)C)cc1` [Formula 59] are 1000 to 3000 nM and 1000 to 3000 nM.
For `Cc1ncsc1-c1ccc([C@H](C)NC(=O)[C@@H]2C[C@@H](O)CN2C(=O)[C@@H](NC(=O)COCCOc2ccc(-c3ccc4c(c3)CN(Cc3ccccc3)C(=O)N4[C@H]3CC[C@H](Nc4ccc(C#N)cn4)CC3)cn2)C(C)(C)C)cc1` [Formula 62], the DC50 at CDK12 and at CDK13 was 500 to 1000 nM throughout.
For `Cc1ncsc1-c1ccc([C@H](C)NC(=O)[C@@H]2C[C@@H](O)CN2C(=O)[C@@H](NC(=O)CN2CCN(c3ncc(-c4ccc(N(C(=O)NCc5ccccc5)[C@H]5CC[C@H](Nc6ccc(C#N)cn6)CC5)cc4)cn3)CC2)C(C)(C)C)cc1` [Formula 80], the DC50 at CDK12 and at CDK13 was less than 100 nM in each case.
As to `N#Cc1ccc(N[C@H]2CC[C@H](N(C(=O)NCc3ccccc3)c3ccc(N4CCN(CCOCCOCCOCCNc5cccc6c5C(=O)N(C5CCC(=O)NC5=O)C6=O)CC4)cc3)CC2)nc1` (stereo partly drawn) [Formula 40], the DC50 at CDK12 was 500 to 1000 nM; at CDK13 it was 1000 to 3000 nM.
In the same order, the values of `Cc1ncsc1-c1ccc([C@H](C)NC(=O)[C@@H]2C[C@@H](O)CN2C(=O)[C@@H](NC(=O)CN2CCN(c3ccc(-c4ccc5c(c4)CCN(Cc4ccccc4)C(=O)N5[C@H]4CC[C@H](Nc5ccc(C#N)cn5)CC4)cn3)CC2)C(C)(C)C)cc1` [Formula 69] are 500 to 1000 nM and 100 to 500 nM.
In the case of `Cc1ncsc1-c1ccc([C@H](C)NC(=O)[C@@H]2C[C@@H](O)CN2C(=O)[C@@H](NC(=O)CN2CCN(c3ncc(-c4ccc(N(C(=O)NCc5ccccc5)[C@H]5CC[C@H](Nc6ccc(C#N)cn6)CC5)cc4)cn3)CC2)C(C)(C)C)cc1` [Formula 84], the DC50 on CDK12 and at CDK13 was less than 100 nM each time.
In the case of `Cc1ncsc1-c1ccc([C@H](C)NC(=O)[C@@H]2C[C@@H](O)CN2C(=O)[C@@H](NC(=O)C2CCN(c3ccc(-c4ccc(N(C(=O)NCc5ccccc5)[C@H]5CC[C@H](Nc6ccc(C#N)cn6)CC5)cc4)cn3)CC2)C(C)(C)C)cc1` [Formula 17], the figures for the DC50 at CDK12 and at CDK13 were 1000 to 3000 nM and 500 to 1000 nM, respectively.
Consider `Cc1ncsc1-c1ccc([C@H](C)NC(=O)[C@@H]2C[C@@H](O)CN2C(=O)[C@@H](NC(=O)CN2CCN(c3ncc(-c4ccc(N(C(=O)NCc5ccccc5)[C@H]5CC[C@H](Nc6ccc(C#N)cn6)CC5)cc4)cn3)CC2)C(C)(C)C)cc1` [Formula 83], for which the DC50 at CDK12 and on CDK13 was less than 100 nM in each case.
Take `Cc1ncsc1-c1ccc([C@H](C)NC(=O)[C@@H]2C[C@@H](O)CN2C(=O)[C@@H](NC(=O)C2CCN(C(=O)C3CCN(c4ccc(N(C(=O)NCc5ccccc5)[C@H]5CC[C@H](Nc6ccc(C#N)cn6)CC5)cc4)CC3)CC2)C(C)(C)C)cc1` [Formula 22]: the “CDK12 degradation Activity” value at CDK12 is given as “−”. Further, at CDK13, the “CDK13 degradation Activity” value is “−”.
